Source: the supplement of paper PMC13207355

Columns and labels:
Conditions in all cases: exposure time: 72 h
E13 [1] = patient-derived glioblastoma stem cells of classical subtype; assay: surviving fraction (nuclei count normalised to DMSO); higher = more cells surviving (less toxic)
E21 [2] = patient-derived glioblastoma stem cells of mesenchymal subtype; assay: as above
E28 [3] = patient-derived glioblastoma stem cells of classical subtype; assay: as above
E31 [4] = patient-derived glioblastoma stem cells of proneural subtype; assay: as above
E34 [5] = patient-derived glioblastoma stem cells of proneural subtype; assay: as above
E57 [6] = patient-derived glioblastoma stem cells of mesenchymal subtype; assay: as above
FT3469 [7] = normal neural stem cell line; assay: as above
E13 [8] = assay: phenotypic distance (Euclidean, principal components) from DMSO controls (arbitrary units); higher = stronger morphological change
E21 [9] = assay: as above
E28 [10] = assay: as above
E31 [11] = assay: as above
E34 [12] = assay: as above
E57 [13] = assay: as above
FT3469 [14] = assay: as above
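For phenotypic distance (Euclidean, principal components) from DMSO controls in this document: cell Painting imaging in 384-well plates, CellProfiler features reduced to at least 20 principal components, Euclidean distance versus same-plate DMSO vehicle wells (0.1% v/v), median over six images per well.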
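For surviving fraction (nuclei count normalised to DMSO) in this document: nuclei counted by high-content imaging of Hoechst-stained cells in laminin-coated 384-well plates, relative to 0.1% DMSO vehicle wells, with staurosporine as cell-death control.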

COc1cc([C@@H]2c3cc4c(cc3[C@@H](O[C@@H]3O[C@@H]5CO[C@@H](c6cccs6)O[C@H]5[C@H](O)[C@H]3O)[C@H]3COC(=O)[C@H]23)OCO4)cc(OC)c1O [Teniposide]
Conditions | phenotypic distance | surviving fraction
E13 [1], 4.1 nM | – | 0.713
E13 [1], 12.3 nM | – | 0.528
E13 [1], 37 nM | – | 0.45
E13 [1], 111.1 nM | – | 0.412
E13 [1], 333.3 nM | – | 0.351
E13 [1], 1000 nM | – | 0.305
E13 [1], 3000 nM | – | 0.174
E13 [8], 4.1 nM | 1.43 | –
E13 [8], 12.3 nM | 3.27 | –
E13 [8], 37 nM | 4.96 | –
E13 [8], 111.1 nM | 5.68 | –
E13 [8], 333.3 nM | 5.77 | –
E13 [8], 1000 nM | 5.12 | –
E13 [8], 3000 nM | 6.24 | –
E21 [2], 4.1 nM | – | 0.902
E21 [2], 12.3 nM | – | 0.682
E21 [2], 37 nM | – | 0.589
E21 [2], 111.1 nM | – | 0.552
E21 [2], 333.3 nM | – | 0.376
E21 [2], 1000 nM | – | 0.145
E21 [2], 3000 nM | – | 0.177
E21 [9], 4.1 nM | 0.843 | –
E21 [9], 12.3 nM | 2.77 | –
E21 [9], 37 nM | 3.95 | –
E21 [9], 111.1 nM | 5.39 | –
E21 [9], 333.3 nM | 5.06 | –
E21 [9], 1000 nM | 6.2 | –
E21 [9], 3000 nM | 6.57 | –
E28 [3], 4.1 nM | – | 0.491
E28 [3], 12.3 nM | – | 0.379
E28 [3], 37 nM | – | 0.428
E28 [3], 111.1 nM | – | 0.351
E28 [3], 333.3 nM | – | 0.32
E28 [3], 1000 nM | – | 0.269
E28 [3], 3000 nM | – | 0.314
E28 [10], 4.1 nM | 3.11 | –
E28 [10], 12.3 nM | 3.7 | –
E28 [10], 37 nM | 3.52 | –
E28 [10], 111.1 nM | 3.17 | –
E28 [10], 333.3 nM | 3.7 | –
E28 [10], 1000 nM | 3.58 | –
E28 [10], 3000 nM | 3.53 | –
E31 [4], 4.1 nM | – | 0.376
E31 [4], 12.3 nM | – | 0.25
E31 [4], 37 nM | – | 0.241
E31 [4], 111.1 nM | – | 0.201
E31 [4], 333.3 nM | – | 0.2
E31 [4], 1000 nM | – | 0.243
E31 [4], 3000 nM | – | 0.191
E31 [11], 4.1 nM | 4.09 | –
E31 [11], 12.3 nM | 2.97 | –
E31 [11], 37 nM | 3.3 | –
E31 [11], 111.1 nM | 3.9 | –
E31 [11], 333.3 nM | 2.97 | –
E31 [11], 1000 nM | 2.67 | –
E31 [11], 3000 nM | 3.37 | –
E34 [5], 4.1 nM | – | 0.758
E34 [5], 12.3 nM | – | 0.677
E34 [5], 37 nM | – | 0.577
E34 [5], 111.1 nM | – | 0.57
E34 [5], 333.3 nM | – | 0.501
E34 [5], 1000 nM | – | 0.447
E34 [5], 3000 nM | – | 0.373
E34 [12], 4.1 nM | 1.81 | –
E34 [12], 12.3 nM | 2.04 | –
E34 [12], 37 nM | 3.24 | –
E34 [12], 111.1 nM | 3.96 | –
E34 [12], 333.3 nM | 4.04 | –
E34 [12], 1000 nM | 2.46 | –
E34 [12], 3000 nM | 2.97 | –
E57 [6], 4.1 nM | – | 0.727
E57 [6], 12.3 nM | – | 0.418
E57 [6], 37 nM | – | 0.323
E57 [6], 111.1 nM | – | 0.212
E57 [6], 333.3 nM | – | 0.167
E57 [6], 1000 nM | – | 0.178
E57 [6], 3000 nM | – | 0.148
E57 [13], 4.1 nM | 1.82 | –
E57 [13], 12.3 nM | 4.96 | –
E57 [13], 37 nM | 6.24 | –
E57 [13], 111.1 nM | 8.39 | –
E57 [13], 333.3 nM | 8.07 | –
E57 [13], 1000 nM | 6.94 | –
E57 [13], 3000 nM | 6.61 | –
FT3469 [7], 4.1 nM | – | 0.636
FT3469 [7], 12.3 nM | – | 0.643
FT3469 [7], 37 nM | – | 0.644
FT3469 [7], 111.1 nM | – | 0.62
FT3469 [7], 333.3 nM | – | 0.595
FT3469 [7], 1000 nM | – | 0.629
FT3469 [7], 3000 nM | – | 0.544
FT3469 [14], 4.1 nM | 1.68 | –
FT3469 [14], 12.3 nM | 2.44 | –
FT3469 [14], 37 nM | 2.6 | –
FT3469 [14], 111.1 nM | 2.26 | –
FT3469 [14], 333.3 nM | 1.97 | –
FT3469 [14], 1000 nM | 1.78 | –
FT3469 [14], 3000 nM | 2.12 | –

CC(C)N1CCN(c2ccc(OCC3COC(Cn4cncn4)(c4ccc(Cl)cc4Cl)O3)cc2)CC1 (stereo unspecified) [Terconazole]
Conditions | phenotypic distance | surviving fraction
E13 [1], 4.1 nM | – | 0.892
E13 [1], 12.3 nM | – | 0.918
E13 [1], 37 nM | – | 0.999
E13 [1], 111.1 nM | – | 0.856
E13 [1], 333.3 nM | – | 0.988
E13 [1], 1000 nM | – | 1.02
E13 [1], 3000 nM | – | 0.958
E13 [8], 4.1 nM | 0.687 | –
E13 [8], 12.3 nM | 5.3 | –
E13 [8], 37 nM | 0.523 | –
E13 [8], 111.1 nM | 0.619 | –
E13 [8], 333.3 nM | 0.667 | –
E13 [8], 1000 nM | 0.49 | –
E13 [8], 3000 nM | 0.901 | –
E21 [2], 4.1 nM | – | 0.938
E21 [2], 12.3 nM | – | 0.927
E21 [2], 37 nM | – | 0.891
E21 [2], 111.1 nM | – | 0.99
E21 [2], 333.3 nM | – | 0.933
E21 [2], 1000 nM | – | 1.03
E21 [2], 3000 nM | – | 0.813
E21 [9], 4.1 nM | 0.486 | –
E21 [9], 12.3 nM | 0.855 | –
E21 [9], 37 nM | 0.706 | –
E21 [9], 111.1 nM | 0.737 | –
E21 [9], 333.3 nM | 0.686 | –
E21 [9], 1000 nM | 0.994 | –
E21 [9], 3000 nM | 1.83 | –
E28 [3], 4.1 nM | – | 1.15
E28 [3], 12.3 nM | – | 1.04
E28 [3], 37 nM | – | 0.91
E28 [3], 111.1 nM | – | 0.941
E28 [3], 333.3 nM | – | 1.09
E28 [3], 1000 nM | – | 1.02
E28 [3], 3000 nM | – | 0.951
E28 [10], 4.1 nM | 0.79 | –
E28 [10], 12.3 nM | 0.643 | –
E28 [10], 37 nM | 0.472 | –
E28 [10], 111.1 nM | 0.647 | –
E28 [10], 333.3 nM | 0.465 | –
E28 [10], 1000 nM | 0.53 | –
E28 [10], 3000 nM | 2.3 | –
E31 [4], 4.1 nM | – | 1.04
E31 [4], 12.3 nM | – | 0.925
E31 [4], 37 nM | – | 0.922
E31 [4], 111.1 nM | – | 1.01
E31 [4], 333.3 nM | – | 0.96
E31 [4], 1000 nM | – | 0.889
E31 [4], 3000 nM | – | 0.873
E31 [11], 4.1 nM | 0.557 | –
E31 [11], 12.3 nM | 1.01 | –
E31 [11], 37 nM | 0.47 | –
E31 [11], 111.1 nM | 0.863 | –
E31 [11], 333.3 nM | 0.868 | –
E31 [11], 1000 nM | 0.76 | –
E31 [11], 3000 nM | 2.39 | –
E34 [5], 4.1 nM | – | 0.941
E34 [5], 12.3 nM | – | 0.827
E34 [5], 37 nM | – | 0.91
E34 [5], 111.1 nM | – | 1.04
E34 [5], 333.3 nM | – | 1.01
E34 [5], 1000 nM | – | 1.1
E34 [5], 3000 nM | – | 0.994
E34 [12], 4.1 nM | 0.517 | –
E34 [12], 12.3 nM | 1.12 | –
E34 [12], 37 nM | 0.485 | –
E34 [12], 111.1 nM | 0.473 | –
E34 [12], 333.3 nM | 0.562 | –
E34 [12], 1000 nM | 0.745 | –
E34 [12], 3000 nM | 0.672 | –
E57 [6], 4.1 nM | – | 0.985
E57 [6], 12.3 nM | – | 0.938
E57 [6], 37 nM | – | 0.963
E57 [6], 111.1 nM | – | 1
E57 [6], 333.3 nM | – | 0.978
E57 [6], 1000 nM | – | 1
E57 [6], 3000 nM | – | 0.948
E57 [13], 4.1 nM | 0.465 | –
E57 [13], 12.3 nM | 0.601 | –
E57 [13], 37 nM | 0.61 | –
E57 [13], 111.1 nM | 0.332 | –
E57 [13], 333.3 nM | 0.688 | –
E57 [13], 1000 nM | 0.505 | –
E57 [13], 3000 nM | 1.09 | –
FT3469 [7], 4.1 nM | – | 0.997
FT3469 [7], 12.3 nM | – | 0.89
FT3469 [7], 37 nM | – | 0.908
FT3469 [7], 111.1 nM | – | 0.85
FT3469 [7], 333.3 nM | – | 0.987
FT3469 [7], 1000 nM | – | 0.952
FT3469 [7], 3000 nM | – | 0.964
FT3469 [14], 4.1 nM | 0.835 | –
FT3469 [14], 12.3 nM | 0.931 | –
FT3469 [14], 37 nM | 1.01 | –
FT3469 [14], 111.1 nM | 0.79 | –
FT3469 [14], 333.3 nM | 0.822 | –
FT3469 [14], 1000 nM | 0.77 | –
FT3469 [14], 3000 nM | 1.17 | –
